# Results: patent US20100129465A1, “Methods and Compositions Related to Acne Treatment” (priority 2008, published 2010)
# System: skin and eyes
# Details: aqueous solution, pH=3.0
structure (smiles),measurement,value
O=C(O)CO [glycolic acid],sting or burning when applied to freshly shaven skin,stings or burns
